The results in this text go back to ChEMBL document CHEMBL1141322, “Antiprotozoal polyacetylenes from the Tanzanian medicinal plant Cussonia zimmermannii” (J Nat Prod, 2007).

A value given as a limit tells only on which side of the number the result lay.

In test [1] the test system is Trypanosoma brucei rhodesiense. Kind of test: Antiparasitic activity against Trypanosoma brucei rhodesiense by Alamar blue assay. It is filed as functional, organism-based.
For the next test, the system named is Trypanosoma cruzi. The experiment in a line: Antiparasitic activity against Trypanosoma cruzi. It is filed as functional, organism-based.
For the next test, the system named is Plasmodium falciparum. Kind of test: Antiparasitic activity against Plasmodium falciparum. It counts as functional, organism-based.
Test [2] relates to Leishmania donovani. The experiment in a line: Antileishmanial activity against Leishmania donovani axenic amastigotes. It counts as functional, organism-based.
The test system of test [3] is Leishmania donovani. Kind of test: Antileishmanial activity against Leishmania donovani in mouse macrophages. It counts as functional, organism-based.
The next test has as its system L6. Kind of test: Cytotoxicity against rat L6 cells by Alamar blue assay. It counts as cell-based.
A short description of test [4]: Selectivity index, ratio of IC50 for rat L6 cells to IC50 for Trypanosoma cruzi. It counts as functional.
Test [5] is described as follows: Selectivity index, ratio of IC50 for rat L6 cells to IC50 for Leishmania donovani in mouse macrophages. It counts as functional.

As to `C=CC(C#CC#CC(O)CCCCCCCCC)OC(C)=O` (centres undefined), the IC50 in test [1] worked out at 460 nM; with Trypanosoma cruzi, 650 nM; in the test with Plasmodium falciparum it was 1400 nM; with Leishmania donovani [2], 130 nM; in the test with Leishmania donovani [3] it was 320 nM; in the test on L6, 12000 nM. For the same molecule, the “Ratio IC50” value in test [4] was 18; in test [5] it was 37.
Turning to `C=CC(C#CC#CC(O)CCCCCCCCCCOC(C)=O)OC(C)=O` (centres undefined), the IC50 in test [1] turned out to be 1100 nM; with Trypanosoma cruzi, 400 nM; with Plasmodium falciparum, 2200 nM; with Leishmania donovani [2], 140 nM; in the test on Leishmania donovani [3], 2300 nM; in the test on L6 it was 58000 nM. The “Ratio IC50” value is 150 in test [4] and 26 in test [5].
Consider `CCCCCCCCCC(O)C#CC#CC(CC)OC(C)=O` (centres undefined), for which the IC50 was 18000 nM in test [1]; 26000 nM in the test with Trypanosoma cruzi; 19000 nM in the test on Plasmodium falciparum; 7800 nM in the test with Leishmania donovani [2]; more than 10000 nM in the test on Leishmania donovani [3]; 54000 nM with L6. Besides, the results for the “Ratio IC50” value in test [4] and in test [5] were 2.1 and less than 5.5, respectively.
Turning to `C[C@@H]1CC[C@H]2[C@@H](C)C(=O)O[C@@H]3O[C@@]4(C)CC[C@@H]1[C@]32OO4` [ARTEMISININ], the IC50 in the test with Plasmodium falciparum amounted to 4.3 nM.
With `O=C(Cn1ccnc1[N+](=O)[O-])NCc1ccccc1` [BENZNIDAZOLE], 2400 nM corresponded to half-maximal inhibition in the test with Trypanosoma cruzi (IC50).
Consider `Nc1nc(N)nc(Nc2ccc([As]3SCC(CO)S3)cc2)n1` (centres undefined) [MELARSOPROL], for which, in test [1], inhibition was half-maximal at 5.8 nM (IC50).
On to `CCCCCCCCCCCCCCCCOP(=O)([O-])OCC[N+](C)(C)C` [MILTEFOSINE], for which the midpoint of inhibition in the test on Leishmania donovani [3], the IC50, lay at 710 nM.
With `COc1cc([C@@H]2c3cc4c(cc3[C@H](O)[C@H]3COC(=O)[C@H]23)OCO4)cc(OC)c1OC` [PODOFILOX], it took […] to reach half-maximal inhibition with L6 (IC50).
